According to the NIST ThermoML archive (doi:10.1021/je7000182):

Assays:
[1] = for mass density: 101 kPa, Liquid
[2] = xn = mol fraction of the nth substance listed; conditions: x2 = 0; for mass density: 101 kPa, Liquid

CC(C)=O [acetone]
[1], Pendant drop shape
Conditions | surface tension liquid-gas [mN/m]
288.15 K | 24.34
298.15 K | 23.02
308.15 K | 21.72
318.15 K | 20.38
328.15 K | 19.15

[1]
Conditions | mass density [kg/m3]
288.15 K | 795.65
293.15 K | 790.04
298.15 K | 784.33
303.15 K | 778.57
308.15 K | 772.76
313.15 K | 766.91
318.15 K | 760.99
323.15 K | 755.02
328.15 K | 748.98

Cc1ccccc1 [toluene]
[1]
Conditions | mass density [kg/m3] | surface tension liquid-gas [mN/m]
288.15 K | 871.41 | 28.9
293.15 K | 866.77 | –
298.15 K | 862.12 | 27.76
303.15 K | 857.46 | –
308.15 K | 852.78 | 26.77
313.15 K | 848.08 | –
318.15 K | 843.37 | 25.72
323.15 K | 838.64 | –
328.15 K | 833.9 | 24.27

Cc1ccccc1 [toluene] + CC(C)=O
[2]
Conditions | mass density [kg/m3] | surface tension liquid-gas [mN/m]
288.15 K | 871.41 | 28.9
293.15 K | 866.77 | –
298.15 K | 862.12 | 27.76
303.15 K | 857.46 | –
308.15 K | 852.78 | 26.77
313.15 K | 848.08 | –
318.15 K | 843.37 | 25.72
323.15 K | 838.64 | –
328.15 K | 833.9 | 24.27

O [water] + CC(C)=O
[2], Pendant drop shape
Conditions | surface tension liquid-gas [mN/m]
288.15 K | 73.49
298.15 K | 71.98
308.15 K | 70.41
318.15 K | 68.78
328.15 K | 67.09

[2]
Conditions | mass density [kg/m3]
323.15 K | 988.01
328.15 K | 985.69
